melting point	SMILES
132.2 to 132.8 °C	COc1ccc(-c2cc(F)c(F)cc2-c2ccc(S(N)(=O)=O)cc2)cc1F [Example 21, 4-[4,5-Difluoro-2-(3-fluoro-4-methoxyphenyl)phenyl]benzenesulfonamide]
192.5 to 193.2 °C	NS(=O)(=O)c1ccc(-c2ccccc2-c2ccc(F)c(Cl)c2)cc1 [Example 12, 4-[2-(3-Chloro-4-fluorophenyl)phenyl]benzenesulfonamide]

Source: patent US6677488B2, “Substituted biphenyl compounds for the treatment of inflammation” (G.D. Searle & Co., priority 1995, dated 2004)
